Data reported in patent publication US7125883B1, “Integrin receptor ligands” (Abbott GmbH & Co. KG, priority 1999, dated 2006).

Molecular target: integrin αvβ3 (Homo sapiens, UniProt P05106+P06756)
Experiment: Integrin αvβ3 assay (competition with vitronectin for binding to solid-phase integrin αvβ3)
Details: competition between human vitronectin and test substance for binding to integrin αvβ3 bound to a solid phase; only a ranking in words is given

Cc1cn(CC(CC(=O)O)NC(=O)OCc2ccccc2)c(=O)nc1NCc1ccc(CNc2ccccn2)cc1.O=C(O)C(F)(F)F (stereo not shown) [Example I-54]
IC50 values (concentration of the ligand at which 50% of the ligand is displaced): best result

O=C(O)C(F)(F)F.O=C(O)CC(Cn1cc(C2CCOCC2)c(NCCC(=O)Nc2ncc[nH]2)nc1=O)NC(=O)OCc1ccccc1 (stereo not shown) [Example I-61, 2-[(3-{[1-(2-{[(Benzyloxy)carbonyl]amino}-3-carboxy-propyl)-2-oxo-5-tetrahydro-2H-pyran-4-yl-1,2-dihydropyrimidin-4-yl]amino}propanoyl)amino]-1H-imidazol-1-ium trifluoroacetate]
IC50 values (concentration of the ligand at which 50% of the ligand is displaced): best result

O=C(O)C(F)(F)F.O=C(O)CC(Cn1cc(-c2ccccc2)c(NCCC(=O)Nc2ncc[nH]2)nc1=O)NC(=O)OCc1ccccc1 (stereo not shown) [Example I-63, 2-[(3-{[1-(2-{[(Benzyloxy)carbonyl]amino}-3-carboxy-propyl)-2-oxo-5-phenyl-1,2-dihydropyrimidin-4-yl]amino}-propanoyl)amino]-1H-imidazol-1-ium trifluoroacetate]
IC50 values (concentration of the ligand at which 50% of the ligand is displaced): best result

CCCc1cn(C[C@H](NC(=O)OCc2ccccc2)C(=O)O)c(=O)nc1N1CCC(CNc2ccccn2)CC1.O=C(O)C(F)(F)F [Example I-64, 2-[({1-[1-((2S)-{[(Benzyloxy)carbonyl]amino}-2-carboxy-ethyl)-2-oxo-5-propyl-1,2-dihydropyrimidin-4-yl]-piperidin-4-yl}methyl)amino]pyridinium trifluoroacetate]
IC50 values (concentration of the ligand at which 50% of the ligand is displaced): best result
